Measured values taken from patent US20150258050A1, “METHOD FOR REDUCING TRIGLYCERIDES” (DEAKIN UNIVERSITY, priority 2012, published 2015).
Entries after “also recorded” stand apart in the source; their conditions may differ.

Legend:
[1] = Complaints reported after the study breakfasts; format: in vivo, human
Method: (§1) The study breakfast consisted of 180 grams of instant mashed potato (Continental Deb™, Unilever, Australasia) mixed with 70 ml boiled water and 20 grams of oil. In each of the three meals 18 grams of lipids consisted of olive oil (La Espanola Pure Olive Oil, Seville, Spain). The DPA breakfast included 2 g of DPA (Equateq Ltd, Breasclete, Callanish, Scotland), the EPA breakfast 2 g of EPA (Equateq Ltd, Breasclete, Callanish, Scotland) and the control (olive oil) meal an additional 2 g of olive oil. EPA and DPA were included in the olive oil as free fatty acids. The subjects could use salt, pepper or chicken flavoured salt with the meal and were provided with water throughout the study period ad libitum. Subjects consumed the study meal within 15 minutes.
After the DPA meal, there were two cases of diarrhea and one case of upset stomach but no diarrhea. One case of diarrhea was reported after the EPA meal, and there were no complaints after the olive oil meal. All complaints occurred 2 to 3 hours after the breakfast.

[2] = Lipidomics of PUFA containing chylomicron TAGs (LC-ESI-MS/MS); format: in vivo, human; settings: 3 and 5 hour time points
Method: Lipidomic analysis of the one, three and five hour chylomicron samples was performed by liquid chromatography, electrospray ionisation-tandem mass spectrometry using an Applied Biosystems 4000 QTRAP mass spectrometer running Analyst 1.5 software. Liquid chromatography was performed on a Zorbax C18, 1.8 μm, 50×2.1 mm column (Agilent technologies, Santa Clara Calif., USA). The lipids of the chylomicrons were extracted with chloroform:methanol (2:1, 20 volumes), mixed, sonicated (30 mins) and allowed to stand for 20 mins. Samples were centrifuged (16 000×g, 10 min) and the supernatant transferred to a 96 well PPE plate and dried until a stream of nitrogen at 40° C. […] Quantification of individual TAG species was performed using scheduled multiple-reaction monitoring (MRM) in the positive ion mode (Murphy et al., (2007) Anal Biochem 366:59-70). Lipid concentrations (pmol/mL) were calculated by relating the peak area of each species to the peak area of the internal standard of triheptadecanoin (Sigma Aldrich, St Louis Mo., USA) for TAGs, cholestyl ester-18:0D6 (CDN isotopes, Quebec, Canada) for cholesteryl esters, phosphatidyl choline-13:0/13:0 (Avanti Polar Lipids, Alabaster Ala., USA) for phosphatidyl cholines and phosphatidyl ethanolamine-17:0/17:0 (Avanti Polar Lipids, Alabaster Ala., USA) for ethanolamines and phosphatidyl inositols (using Multiquant 1.2 software). […]

[3] = Postprandial triacylglycerol concentration in chylomicron-rich fraction after test breakfasts; format: in vivo, human
From the text: (§2) Ten healthy normal weight females between the age of 20 to 30 of took part in a randomized cross over study with three different breakfast meals. […] The baseline values for EPA and DHA proportions in erythrocytes were 1.0±0.1 and 6.7±0.6% (mean±standard error of the mean). Subjects with any form of cardiovascular disease based on self reported medical status and family history were excluded from the study. All subjects provided written informed consent. Ethics approval was obtained from the Deakin University Human Research Ethics Committee (EC2011-023).
(§3) This was a postprandial study where fasting blood was taken, followed by the consumption of a breakfast containing placebo (olive oil) or active oils (EPA or DPA) and then hourly post prandial blood samples were taken up to 5-hours.
as §1
(§4) A chylomicron-rich fraction (Svedberg flotation unit (Sf) >400), later abbreviated to “chylomicrons”, was isolated from plasma by ultracentrifugation using a Beckman ultra centrifuge and TLA 100.4 rotor (Beckman instruments, Palo Alto, Calif., USA) as previously described (Ågren et al., 2006). Briefly 1.8 ml of EDTA plasma was overlaid with saline solution (density=1.006 kg/I) in ultracentrifuge tubes and centrifuged at 35,000×g for 30 min at 23° C. The top 1 millilitre was aspirated to remove the chylomicron-rich fraction. All samples were frozen at −80° C. prior analysis.
(§5) TAG concentrations in plasma and the isolated chylomicrons were measured on a Roche Cobas Integra 400 plus autoanalyser (Roche, Lavel, Quebec, Canada) by enzymatic colorimetric method using commercially available kits (TRIGL) as per the manufacturer's instructions (Roche, Lavel, Quebec, Canada).

[4] = Chylomicron TAG polyunsaturated fatty acids (gas chromatography of FAME); format: in vivo, human; settings: for EPA (20:5n-3) proportion in chylomicron TAGs: one to five hours postprandial, compared to the other breakfasts
Method: as §3, §1, §4
An internal standard mixture of triheptadecanoin (Sigma-Aldrich, St. Louis, Mo., USA), dinonadecanoylphosphatidylcholine (Sigma-Aldrich, St. Louis, Mo., USA) and cholesterylpentadecanoate (Nu-Chek Prep. Inc., Elysian, Minn., USA) was added to the isolated chylomicrons. Then 1.5 ml methanol, 3 ml chloroform and 0.8 ml 0.88% KCl in water were added and the blend was thoroughly vortexed after each addition. The tubes were centrifuged 2000×g for 3 minutes to separate the layers, and the chloroform rich layer was removed and evaporated to dryness (Folch et al., (1957) J Biol Chem 226:497-509). TAGs and phospholipids were isolated from the extracted lipid mixture with solid phase extraction based on silica columns (Hamilton and Comai, (1988) Lipids 23:1146-1149).
Fatty acid methyl esters (FAME) were prepared with a sodium methoxide method. In short, the lipids were suspended to 1 ml dry diethylether. 25 μl methylacetate and 25 μl sodium methoxide were added and the blend was incubated for 5 minutes while shaken at times. The reaction was stopped with 6 μl acetic acid. The tubes were centrifuged 2000×g for 5 minutes, after which the supernatant was removed and gently evaporated to dryness. The resulting FAME were transferred to 100 μl inserts in hexane (Christie (1982) J Lipid Res 23:1072-1075). The FAME were analysed with gas chromatography (Shimadzu GC-2010 equipped with AOC-20i auto injector, flame ionization detector (Shimadzu corporation, Kyoto, Japan) and wall coated open tubular column DB-23 (60 m×0.25 mm i.d., liquid film 0.25 μm, Agilent technologies, J.W. Scientific, Santa Clara, Calif., USA). Splitless/split injection was used and the split was opened after 1 min. Supelco 37 Component FAME Mix (Supelco, St. Louis, Mo., USA), 68D (Nu-Check-Prep, Elysian, Minn., USA) and GLC-490 (Nu-Check-Prep, Elysian, Minn., USA) were used as external standards.

[5] = rats, short term supplementation; cited from earlier work
[6] = Postprandial plasma triacylglycerol concentration after test breakfasts (randomized cross-over study); format: in vivo, human
From the text: as §2, §3, §1
Venous blood was drawn at the fasting state and hourly post prandial for one to five hours. EDTA blood samples were immediately centrifuged for fifteen minutes at 591×g to isolate the plasma.
as §5

[7] = Chylomicron phospholipid fatty acids (gas chromatography of FAME); format: in vivo, human; settings: at 2 h
Method: as §3
as §1, with “EPA and DPA were included in the olive oil as free fatty acids. The subjects could use salt, pepper or chicken flavoured salt with the meal and were provided with water throughout the study period ad libitum. Subjects consumed the study meal within 15 minutes.” left out
Fatty acid methyl esters (FAME) were prepared with a sodium methoxide method. […] The FAME were analysed with gas chromatography (Shimadzu GC-2010 equipped with AOC-20i auto injector, flame ionization detector (Shimadzu corporation, Kyoto, Japan) and wall coated open tubular column DB-23 (60 m×0.25 mm i.d., liquid film 0.25 μm, Agilent technologies, J.W. Scientific, Santa Clara, Calif., USA). Splitless/split injection was used and the split was opened after 1 min. Supelco 37 Component FAME Mix (Supelco, St. Louis, Mo., USA), 68D (Nu-Check-Prep, Elysian, Minn., USA) and GLC-490 (Nu-Check-Prep, Elysian, Minn., USA) were used as external standards.

[8] = 2 g in breakfast, 10 subjects, 2 to 3 hours after breakfast

Cases of diarrhea after the meal [1, 8] | Cases of upset stomach but no diarrhea after the meal [1, 8] | Subjects reporting diarrhea or upset stomach ([1]; in the three hours following the breakfast) | TAG 58:9 in chylomicrons, compared to olive oil breakfast [2] | DHA (22:6n-3) in chylomicron TAGs, compared to olive oil breakfast ([4]; at 2 h and 3 h) | EPA (20:5n-3) proportion in chylomicron TAGs [4] | DPA (22:5n-3) content in chylomicron TAGs ([4]; vs olive oil meal 2-5 h (3 h p=0.06), vs EPA meal 3-5 h) | Amount of DPA and DHA in chylomicron phospholipids, compared to olive oil breakfast [7] | Proportion of EPA in chylomicron phospholipids, compared to the two other breakfasts [7] | DHA (22:6n-3) in chylomicron TAGs, compared to olive oil breakfast ([4]; at 5 h) | Compound | Incorporation of fatty acids in chylomicrons ([3]; 2 g added to 18 g olive oil, within five hours) | Chylomicron TAG level after the breakfast ([3]; 2 g free fatty acid in 18 g olive oil, up to 5 h postprandial, n=10) | Incremental area under the chylomicron TAG curve, compared to olive oil meal ([3]; 2 g in breakfast, p=0.021) | Incremental area under the chylomicron TAG curve, compared to EPA meal ([3]; 2 g in breakfast, p=0.034) | Chylomicron TAG concentration at individual time points, compared to control meal ([3]; one and two hours, p=0.017 and p=0.068) | Concentration of DHA in liver [5] | Concentration of EPA in the liver, heart and skeletal muscle [5] | Difference between plasma TAG areas, compared to control meal ([6]; 2 g in breakfast, p=0.078) | Plasma TAG concentration at individual time points, compared to control meal ([6]; one and two hours, p=0.024 and p=0.014) | Plasma triglyceride level after consumption ([6]; postprandial)
two | one | three out of the ten | significantly more | significantly increased | did not raise | significantly higher | – | – | – | CCC=CCC=CCC=CCC=CCC=CCCCCCC(=O)O [DPA, 7, 10, 13, 16, 19 docosapentaenoic acid] | almost completely eliminates | remained close to fasting levels; also recorded: remained at almost fasting level | significantly reduced | significantly reduced | smaller | significantly increased | significantly increased | tended to be significant | smaller | remained close to fasting levels
One | – | – | significantly more | – | significantly higher | – | increased | increased | significantly increased | CC/C=C\C/C=C\C/C=C\C/C=C\C/C=C\CCCC(=O)O [EPA, eicosapentaenoic acid, reference compound] | – | – | – | – | – | – | – | – | – | –
